Series [1] relates to Bone Marrow Cells of Male Mice. Nature of the series: Micronucleus test in bone marrow cells of male mice (Example 14). As to conditions: 70 mg/kg intraperitoneally.
Method: 70 mg/kg intraperitoneally administration of CPA is used as a positive control dosage (seven male ICR mice are used in each group). Twenty-four hours after single injection administration, all animals are sacrificed and the changes on the number of polychromatic erythrocyte with one or more nuclei (MNPCE) are evaluated with the changes on the total white blood cells and difference counts on the neutrophils and lymphocytes on the prepared blood. In addition, PCE/(PCE+normochromatic erythrocytes (NCE)) ratio are calculated by counting 500 erythrocytes for detecting possibility of cytotoxicity.
Series [2] in a line: Solubility of various salt forms in various solvents at room temperature (Example 4A). The class given is physicochemical. Conditions: read-out: Salt Form Solubility.
Series [3] has as its system gram positive bacteria, gram negative bacteria, methicillin resistant bacteria, penicillin resistant bacteria, and the known quinolone resistant strains. As to conditions: cited from earlier work.
For series [4] the following is noted: See Korean Patent No. 10-566346; cited from earlier work.
A short description of series [5]: Solubility of various salts in distilled water, converted into free base (Example 4B). As to conditions: room temperature, converted into the corresponding solubilities of free base.
For series [6], the system named is male ICR mice. Kind of series: Mouse toxicity test, intraperitoneal (Example 6). As for the experimental part: Male ICR mice are divided into six dose groups (five mice per group), and then fasted (no food is given except water) for 24 hours. […] A median lethal dose (LD50), an approximate lethal dose, and a maximum tolerate dose are determined after observation for 14 days.
Necropsy and histopathology findings are also performed.

For series [7] the following is noted: mouse, in vivo. Here is the method:
Seven week old male mice (ICR CD-1), 28-31 g of body weight upon receipt, are used.
Blood is sampled at 0.25, 0.5, 1, 1.5, 2, 3, 4, and 5 hours after dosing by orbital puncture.

For series [8] the following is noted: in vivo.
The nature of series [9]: Pharmacokinetic study after intravenous administration in rats (Example 10). Conditions: 10 mg/kg i.v. in male SD rats.
Setting [10] is: 24 hours after single injection.
The mark [11] stands for this setting: male ICR mice, intraperitoneal, 14 days observation.
[12] abbreviates: male, ICR, mouse, in vivo, ip, 14 days.

Where two headings read alike, the source gives them in different places.

Take `O=P1(N(CCCl)CCCl)NCCCO1` (stereo not shown) [CPA, cyclophosphamide]: in [1] (setting [10]), the “MNPCEs 2000 PCEs” value worked out at 71.86 ± 10.43, the “PCE(PCE + NCE) ratio” value is given as 0.36 ± 0.07, the “Proportions among 100 leukocytes (%) Lymphocytes” value came out at 75.71 ± 9.20% and the “Proportions among 100 leukocytes (%) Neutrophils” value stood at 21.71 ± 9.45%. In addition, in series [1] (setting [10]), the Total leukocyte numbers is on record as 2.36 ± 0.55 ×10^3 cells mm^3. In addition, the “Change of MNPCE” value in series [1] (CPA treated group) is on record as “significant increase of MNPCE”. Moreover, in [1] (male ICR mice, single), the “Loss of Locomotion” value is 0/7 and the Mortality is given as 0/7.
In the case of `CON=C1CN(c2nc3c(cc2F)c(=O)c(C(=O)O)cn3C2CC2)CC12CNC2` [Parent Compound], the Solubility in series [2] (aqueous solution with a pH of 1.2, simulated gastric fluid, pH 1.2, room temperature) is 7700 µg/mL; in series [2] (aqueous solution with a pH of 6.8, aqueous buffer, pH 6.8, room temperature), 38 µg/mL; in [2] (solvent of pH 4.0, aqueous buffer, pH 4.0, room temperature), 6490 µg/mL. For the same molecule, in [3], the Antimicrobial activity result is on record as “excellent antimicrobial activity”. In addition, in series [4], the Aqueous solubility entry is given as “low”.
In the case of `[Mg]` [Magnesium], in [5], the Solubility was determined as 20 µg/mL.
In series [6] (setting [11]), `CON=C1CN(c2nc3c(cc2F)c(=O)c(C(=O)O)cn3C2CC2)CC12CNC2` [Phosphate] had an Approximate lethal dose of 250 to 500 mg/kg and a Median lethal dose of 356.91 mg/kg. For the same molecule, the Maximum tolerate dose in series [6] (setting [12]) is on record as 250 mg/kg.
The like results for `CON=C1CN(c2nc3c(cc2F)c(=O)c(C(=O)O)cn3C2CC2)CC12CNC2` [Formate] were, in that order, 500 to 1000 mg/kg, 716.24 mg/kg and 500 mg/kg.
For the molecule Maleate, the Solubility in series [5] is 180 µg/mL.
In series [6] (setting [11]), `CON=C1CN(c2nc3c(cc2F)c(=O)c(C(=O)O)cn3C2CC2)CC12CNC2.Cl` [Hydrochloride] showed an Approximate lethal dose of 250 to 500 mg/kg, a Maximum tolerate dose of 250 mg/kg and a Median lethal dose of 481.93 mg/kg. In series [7] (iv, 10 mg/kg), this molecule displayed a C last of 67 ng/mL, a Half-life of 1.259 h and a T last of 4.0 h. In addition, in series [7] (po, 100 mg/kg), the Half-life was 2.205 h. Further, in [8], the Fibrous peritonitis entry is on record as “severe fibrous peritonitis”. Also, in series [9], the “AUC 0-5 hr” value is 6.070 ± 0.731, the AUC inf was found to be 6283 ± 804 ng·h/mL, the C last turned out to be 137 ± 42 ng/mL and the Half-life was found to be 1.061 ± 0.093 h. The T last in series [9] stood at 5.0 ± 0.0 h.
Regarding Mandelate, the Solubility in series [5] was 1010 µg/mL.
Same read-out and setting: the result for `O=C(O)c1ccccc1O` [Salicylate] reads 110 µg/mL; that for Fumarate, 630 µg/mL.
For `CON=C1CN(c2nc3c(cc2F)c(=O)c(C(=O)O)cn3C2CC2)CC12CNC2` [Methanesulfonate], in series [6] (setting [11]), the Approximate lethal dose was 500 to 1000 mg/kg and the Median lethal dose came out at 716.24 mg/kg. Moreover, the Maximum tolerate dose in [6] (setting [12]) is reported as 500 mg/kg.

In general, Solubility refers to the concentration that dissolves in the medium under given conditions.

Source of the values: US8324238B2.
